The record followed here is patent EP2890687B1, “SALTS OF BENZOTHIAZOLONE COMPOUND AS BETA-2-ADRENOCEPTOR AGONIST” (priority 2012, dated 2014).

The target in one series is T1, human 5-HT2C receptor (Homo sapiens, UniProt P28335).
T1 construct: purchased Biosignal Packard, USA; host or cells: CHO cell membranes
T1 sequence (P28335 33-458): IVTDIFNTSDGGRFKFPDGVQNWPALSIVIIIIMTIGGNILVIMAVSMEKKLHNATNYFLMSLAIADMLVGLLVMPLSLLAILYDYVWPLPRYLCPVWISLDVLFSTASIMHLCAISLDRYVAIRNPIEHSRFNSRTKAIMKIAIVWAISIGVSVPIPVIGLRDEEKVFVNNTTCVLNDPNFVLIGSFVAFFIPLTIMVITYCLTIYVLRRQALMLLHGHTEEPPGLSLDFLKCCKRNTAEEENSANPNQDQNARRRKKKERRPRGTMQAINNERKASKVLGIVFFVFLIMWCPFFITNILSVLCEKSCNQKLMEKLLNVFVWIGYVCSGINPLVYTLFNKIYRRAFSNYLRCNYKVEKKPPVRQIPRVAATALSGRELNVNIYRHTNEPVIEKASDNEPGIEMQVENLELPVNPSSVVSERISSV
As to the kind of experiment: 3H-Mesulergine binding to hr5-HT2C CHO cell membranes. The note with it: 3H-Mesulergine 1 nM, kind of constant not stated. As to the method:
Non-specific binding is evaluated in the presence of 1 µM Mesulergine. Fifty µL each of membrane, ligand and compound in a total volume of 250 µL are incubated in 96-well plates for 60 min at 22° C in a buffer containing 50 mM Tris, 0.1% ascorbic acid, 10 µM Pargyline, pH 7.7. The plates are filtrated, washed 3 times in ice-cold 50 mM Tris, dred and measured in Topcount.

The target in the next series is T2, Serotonin 5-HT2C (Homo sapiens, UniProt P28335).
T2 construct: expressed in transfected cells; host or cells: CHO-K1 coexpressing mitochondrial apoaequorin and Gα16
T2 sequence (P28335 33-458): T1 sequence (P28335 33-458)
As to the kind of experiment: Aequorin agonist assay in CHO-K1 cells expressing recombinant Serotonin 5-HT2Cne and Gα16. In kind it is cell-based. The settings on record: for Emax: CHO-K1, percentage of the activity of the reference agonist at its EC100.

The next series concerns Human skMC. Briefly: cAMP response in primary human skeletal muscle cells (differentiated skeletal myotubes). The note with it: read-out: Primary cells; for pEC50: cAMP response EC50 Human skMC, differentiated skeletal myotubes; for Emax: cAMP response Emax % Human skMC.
A further series addresses β2 AR (Homo sapiens, UniProt P07550). Briefly: cAMP functional assay in CHO cells stably transfected with human β2 adrenoceptor (Test 1). The settings on record: for Emax: CHO, read-out: CHO cells Emax % β2 AR, cAMP, compared to isoprenaline; for pEC50: CHO cells EC50 β2 AR, cAMP, CHO cells stably transfected with human β2 adrenoceptor.
Another series concerns the target β1 AR (Homo sapiens, UniProt P08588). Briefly: cAMP functional assay in CHO cells stably transfected with human β1 adrenoceptor (Test 1). The settings on record: for Emax: CHO, read-out: CHO cells Emax % β1 AR.
The next series addresses T3, α1A AR (Homo sapiens, UniProt P35348).
T3 construct: host or cells: CHO-K1
T3 sequence (P35348 1-466): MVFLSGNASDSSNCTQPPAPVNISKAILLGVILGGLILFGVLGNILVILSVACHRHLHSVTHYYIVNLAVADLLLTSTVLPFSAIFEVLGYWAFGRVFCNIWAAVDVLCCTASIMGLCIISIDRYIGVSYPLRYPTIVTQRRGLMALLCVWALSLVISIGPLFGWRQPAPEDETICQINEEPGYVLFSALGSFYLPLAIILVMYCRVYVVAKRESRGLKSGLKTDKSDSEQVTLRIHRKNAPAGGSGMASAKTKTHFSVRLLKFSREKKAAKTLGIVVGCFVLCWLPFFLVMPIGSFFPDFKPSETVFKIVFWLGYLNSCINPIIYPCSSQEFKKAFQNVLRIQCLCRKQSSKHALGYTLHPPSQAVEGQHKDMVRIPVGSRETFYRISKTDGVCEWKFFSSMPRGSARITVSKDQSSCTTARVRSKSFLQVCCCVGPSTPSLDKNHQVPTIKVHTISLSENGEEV
As to the kind of experiment: Ca2+ FLIPR assay in human adrenergic Alpha1A CHO-K1 cell line (Test 1). In kind it is cell-based. The note with it: summary in words.

Series [1] in a line: Comparative solubility in H2O with pH adjustment by HCl or NaOH. In kind it is physicochemical. The settings on record: water, read-out: solubility in H2O, Conc. How it is done:
The relative solubilities of the free base form and the acetate and glycolate salt forms of Compound A were analysed and the results are show in the table below. Solutions were titrated with addition of HCl or NaOH for pH adjustment. The improved aqueous solubilities of the acetate and glycolate salt forms relative to the free base form of Compound A make the acetate and glycolate salts of Compound A more suitable for subcutaneous injection or infusion.

The target in another series is Adrenergic beta1 (Cavia porcellus, UniProt H0W3H1). As to the kind of experiment: Left atrium contraction assay (Ricerca, Adrenergic beta1). Also on record: species or system Dunkin Hartley Guinea pig.
Sequence of Adrenergic beta1 (H0W3H1 1-470): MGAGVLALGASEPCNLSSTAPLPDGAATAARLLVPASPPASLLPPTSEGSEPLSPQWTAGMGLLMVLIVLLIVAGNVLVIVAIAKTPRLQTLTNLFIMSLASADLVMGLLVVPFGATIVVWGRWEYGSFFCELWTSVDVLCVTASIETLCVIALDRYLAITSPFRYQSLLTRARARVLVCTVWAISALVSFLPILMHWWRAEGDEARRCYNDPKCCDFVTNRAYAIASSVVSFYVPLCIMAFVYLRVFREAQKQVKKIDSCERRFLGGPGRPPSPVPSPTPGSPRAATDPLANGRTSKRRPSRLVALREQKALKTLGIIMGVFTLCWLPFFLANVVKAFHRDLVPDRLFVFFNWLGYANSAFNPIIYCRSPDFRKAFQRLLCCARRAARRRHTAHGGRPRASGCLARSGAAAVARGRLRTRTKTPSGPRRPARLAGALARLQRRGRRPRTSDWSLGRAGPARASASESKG
A further series deals with Sino-Atrial node. As to the kind of experiment: Sino-Atrial node beating rate in isolated rabbit right atrium. The note with it: n=6. Set-up: species or system New Zealand white female rabbits.
For series [2], the system named is isolated Langendorff perfused rabbit hearts. Briefly: Automaticity in isolated Langendorff perfused rabbit hearts.
For a further series, the system named is rats. Briefly: Heart rate in rats after s.c. bolus. In kind it is in vivo, Wistar Han (W-H) IGS rats. The note with it: up to 0.3 mg/kg, Figures 3a-3c. The text has this:
Wistar Han (W-H) IGS (International Genetic Standard) rats (Crl:WI(Han)) were purchased from Charles River Laboratories. Femoral arterial and venous catheters were chronically implanted and exteriorized through a spring tether-swivel system and housed in specialized cages. Arterial catheter was connected to a pressure transducer to continuously measure pulse pressure, mean arterial pressure and heart rate, which was derived from the blood pressure signal, via a digital data acquisition system. Compounds were administered via s.c catheter implanted through the skin buttun. Values are expressed as means ± SEM (n=3).

The test system of a further series is Rhesus monkeys. Briefly: Heart rate in rhesus monkeys after single s.c. administration. In kind it is in vivo. The settings on record: s.c. bolus, up to 0.03 mg/kg, Figures 4a, 4b. How it is done:
Rhesus monkeys, 24 females with body weight around 4 to 8 kg, were randomized into 4 groups of n=6. The animals were restrained on a chair up to 4 hours after single subcutaneous administration of compounds, and then returned to their pens. Heart rates were measured using a Surgivet V3304 device. Values are expressed as means ± SEM (n=6).

Series [3] can be described thus: Steady state plasma concentration in the rat minipump study. Type of series: in vivo, Male Wistar Han IGS rats. The note with it: rats. How it is done: Rats were acclimated to the facility for 7 days. […] Food and water were provided ad libitum. […] Body weights were measured twice per week. […] Brain weight was used for normalization of organ weights. Results are expressed as mean +/-SEM.

Series [4] relates to skeletal muscle and heart. The note with it: rats.
The subject of a further series is Rat cardiomyocytes. As to the kind of experiment: cAMP response in primary rat cardiomyocytes. The settings on record: Cardiomyocyte.
The next series has as its system Rat skMC. As to the kind of experiment: cAMP response in primary rat skeletal muscle cells.
Setting [5] is: Homo sapiens, Myotube, compared to formoterol.

pEC50: −log10 of the molar value. Values after ≈ are worked out from the molar mass of the structure shown. Read-outs that look alike come from different tables or passages of the source. Where only a bound is given, the exact number is not on record here.

Sequence of β2 AR (P07550 whole entry): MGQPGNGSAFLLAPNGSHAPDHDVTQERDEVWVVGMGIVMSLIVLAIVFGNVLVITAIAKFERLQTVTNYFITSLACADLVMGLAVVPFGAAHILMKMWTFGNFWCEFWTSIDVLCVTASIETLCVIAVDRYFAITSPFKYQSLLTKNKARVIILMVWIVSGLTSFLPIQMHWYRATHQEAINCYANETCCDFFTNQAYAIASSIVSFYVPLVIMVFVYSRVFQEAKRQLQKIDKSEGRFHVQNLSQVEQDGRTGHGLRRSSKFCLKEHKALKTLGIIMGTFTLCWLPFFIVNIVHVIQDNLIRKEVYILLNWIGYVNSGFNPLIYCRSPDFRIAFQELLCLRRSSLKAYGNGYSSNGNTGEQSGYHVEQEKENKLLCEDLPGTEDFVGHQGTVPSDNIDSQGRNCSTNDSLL
Sequence of β1 AR (P08588 whole entry): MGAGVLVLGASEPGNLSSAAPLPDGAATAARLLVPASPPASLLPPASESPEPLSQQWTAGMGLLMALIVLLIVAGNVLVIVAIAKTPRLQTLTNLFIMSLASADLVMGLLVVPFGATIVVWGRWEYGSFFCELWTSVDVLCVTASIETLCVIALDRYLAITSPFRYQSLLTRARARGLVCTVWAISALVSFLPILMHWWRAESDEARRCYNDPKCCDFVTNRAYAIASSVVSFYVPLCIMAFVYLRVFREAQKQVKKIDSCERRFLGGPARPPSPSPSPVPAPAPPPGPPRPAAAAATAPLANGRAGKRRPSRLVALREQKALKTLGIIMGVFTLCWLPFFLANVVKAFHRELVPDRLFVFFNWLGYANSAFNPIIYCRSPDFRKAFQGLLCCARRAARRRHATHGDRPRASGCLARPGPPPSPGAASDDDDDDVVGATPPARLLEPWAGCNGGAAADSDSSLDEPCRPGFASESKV

With `CCCCOc1ccc(CC(C)(C)NC[C@@H](O)c2cc(O)cc3[nH]c(=O)sc23)cc1` [Compound B], the “Serotonin 5-HT2C Binding” value on human 5-HT2C receptor was determined as 0.8 µM. For the same molecule, the values for the Emax on Serotonin 5-HT2C, in the series on Human skMC (setting [5]) and at β2 AR were 99%, 100% and 83%, respectively. Also, the pEC50 in the series with Human skMC (Homo sapiens, Myotube) is 6.55.
Take `CCCCOc1ccc(CC(C)(C)NCC(O)c2cc(O)cc3[nH]c(=O)sc23)cc1` (racemic) [Compound A/B]: on human 5-HT2C receptor, the “Serotonin 5-HT2C Binding” value was determined as 1.7 µM. The Emax turned out to be 113% at Serotonin 5-HT2C, 100% with Human skMC (setting [5]), 87% at β2 AR and 38% on β1 AR. Further, the pEC50 with Human skMC (Homo sapiens, Myotube) is 9.20.
As to `CCCCOc1ccc(CC(C)(C)NC[C@H](O)c2cc(O)cc3[nH]c(=O)sc23)cc1` [Compound A, (R)-7-(2-(1-(4-butoxyphenyl)-2-methylpropan-2-ylamino)-1-hydroxyethyl)-5-hydroxybenzo[d]thiazol-2(3H)-one], the “activity on α1A AR” value at α1A AR is given as “no activity”. In addition, the solubility in [1] (aqueous buffer, pH 7.0) is 50 µg/mL (≈ 116 µM); in series [1] (pH 6.2, aqueous buffer), 270 µg/mL (≈ 627 µM); in series [1] (pH 7.3, aqueous buffer), less than 10 µg/mL; in [1] (pH 7.8, aqueous buffer), less than 10 µg/mL. Moreover, the pEC50 on Adrenergic beta1 (guinea pig left atria, n=2) was less than 5.00; on Serotonin 5-HT2C (agonist mode, aequorin luminescence), 6.55; with Rat cardiomyocytes (read-out: Primary cells, cAMP response EC50 Rat cardiomyocytes), 8.24; in the series with Rat skMC (Myotube, read-out: Primary cells, cAMP response EC50 Rat skMC) it was 8.47; in the series on Human skMC (listed as Compound A (R)), 9.15; at β2 AR, 8.25. For the same molecule, at β1 AR, the pEC50 is 6.25. In addition, the “effects on left atrium contraction” value on Adrenergic beta1 (up to 10 µM) is “no effects”. Also, the “Sino-Atrial node beating rate, maximum increase” value in the series with Sino-Atrial node is on record as “+6.2%”. The “effects on the pacemaker activity” value in series [2] (compared to Formoterol, Figures 2a, 2b) is given as “less direct effects”. Further, the “Automaticity, maximum increase” value in series [2] (isolated rabbit heart, n=3) is “+17%”. Also, the heart rate change result is “less heart rate increases compared to formoterol” in the series with rats and “less heart rate increase compared to formoterol” in the series with Rhesus monkeys. Further, on human 5-HT2C receptor, the “Serotonin 5-HT2C Binding” value is given as 11 µM. Moreover, the “fold less active on 5-HT2C compared to the racemate or the (S) enantiomer” value on Serotonin 5-HT2C was “over 10 fold”. Moreover, on Serotonin 5-HT2C (5-HT2C EC50 versus β2 AR EC50 (5.6 nM)), the “fold less active on 5-HT2C compared to β2 AR agonist activity” value amounted to 50 fold. Also, the Emax on Serotonin 5-HT2C was found to be 83%; in the series with Rat cardiomyocytes (read-out: Primary cells, cAMP response Emax % Rat cardiomyocytes), 71%; in the series with Rat skMC (read-out: Primary cells, cAMP response Emax % Rat skMC) it was 98%; in the series with Human skMC (setting [5]), 96%; at β2 AR, 88%; at β1 AR it was 32%. Further, the “steady state plasma concentration” value in series [3] (0.01 mg/kg/day s.c. minipump) was ~ 0.2 nM. Besides, the steady state concentration in series [3] (0.1 mg/kg/day s.c. minipump) is recorded as ~ 2 nM. For the same molecule, in [4] (0.01 mg/kg/day s.c. minipump, 28 days, significant), the skeletal muscle hypertrophy was 11%. Moreover, the heart histopathology entry in series [4] (even at 0.1 mg/kg/day s.c. minipump, 28 days) is reported as “no findings”. Further, the “skeletal muscle mass and heart mass increase (Figure 1)” value in series [4] (s.c. minipump 28 days, formoterol 0.003-0.03, Compound A 0.01-0.1 mg/kg/day) is listed as “induces skeletal muscle hypertrophy with minimum impact on heart mass”. Besides, the “intrinsic efficacy on β1 AR” value on β1 AR (summary in words) is on record as “very low intrinsic efficacy”.
With `CCCCOc1ccc(CC(C)(C)NC[C@H](O)c2cc(O)cc3[nH]c(=O)sc23)cc1.O=C(O)CO` [Compound A glycolate salt, (R)-7-(2-(1-(4-butoxyphenyl)-2-methylpropan-2-ylamino)-1-hydroxyethyl)-5-hydroxybenzo[d]thiazol-2(3H)-one glycolate salt], the solubility in series [1] (pH 5.1, aqueous buffer) stood at 13100 µg/mL; in [1] (pH 5.3, aqueous buffer) it was 6390 µg/mL; in [1] (pH 5.4, aqueous buffer), 4470 µg/mL.
For the molecule `CC(=O)O.CCCCOc1ccc(CC(C)(C)NC[C@H](O)c2cc(O)cc3[nH]c(=O)sc23)cc1` [Compound A (R) acetate salt, (R)-7-(2-(1-(4-butoxyphenyl)-2-methylpropan-2-ylamino)-1-hydroxyethyl)-5-hydroxybenzo[d]thiazol-2(3H)-one acetate salt], the solubility in series [1] (aqueous buffer, pH 6.0) came out at 1110 µg/mL; in [1] (pH 5.9, aqueous buffer), 1330 µg/mL; in series [1] (pH 6.1, aqueous buffer), 1100 µg/mL; in series [1] (pH 6.2, aqueous buffer) it was 550 µg/mL. Besides, in the series on Human skMC (Homo sapiens, Myotube, compared to isoprenaline), the Emax came out at 93%. In addition, the pEC50 in the series on Human skMC (acetate salt) is 8.77; at β2 AR, 8.60.
